# Read-outs that look alike come from different tables or passages of the source. No end group written: not given here.
# Legend:
# BMKC = test: Anti-cancer assay, MTT, LD50; format: cell-based; settings: BMKC cloned melanoma line, 24 hours with peptide
# Excerpt: (§1) Numbers are LD50 values (μg/mL).
# SW480 = test: Anti-cancer assay, MTT, LD50; format: cell-based; settings: SW480 colon adenocarcinoma line, 24 hours with peptide
# Excerpt: as §1
# MCF7 = test: Anti-cancer assay, MTT, LD50; format: cell-based; settings: MCF7 breast adenocarcinoma line, MTT, 24 hours with peptide
# Excerpt: as §1
# [1] = test system: Pseudomonas aeruginosa ATCC 9027; test: Antimicrobial assay I, MIC by OD measurement; format: cell-based; settings: 37° C. for 24 hours, absorbance 620 nm
# [2] = test system: Staphylococcus aureus ATCC 6538; test: Antimicrobial assay I, MIC by OD measurement; format: cell-based; settings: 37° C. for 24 hours, absorbance 620 nm
# in vitro [3] = settings: human, WI38 normal lung fibroblast cells, 24 hours with peptide
# in vitro [4] = format: cell-based, human; settings: human, human red blood cells, pH 7, hemolytic assay, concentration at 50% hemolysis, 1 hour at 37° C.; read-out: LD50
# [5] = test system: yeast (Saccharomyces cerevisiae); test: Antimicrobial assay I, yeast assay in RPMI 1640; format: cell-based; settings: RPMI 1640 media
# P. aeruginosa H374 [6] = format: cell-based, Pseudomonas aeruginosa; settings: for FIC Index: 0.5 or less = synergy; for MIC Cm-comb.: MIC of chloramphenicol with peptide at ¼ MIC; for MIC Nal-comb.: MIC of nalidixic acid with peptide at ¼ MIC
# Procedure: (§2) The synergistic effects of the inventive peptides with either chloramphenicol or nalidixic acid against efflux mutants of Pseudomonas aeruginosa were investigated. The MIC values were determined for either nalidixic acid or chloramphenicol alone as baselines. Peptides were added at their ¼ MIC concentration, and the concentration of either nalidixic acid or chloramphenicol to arrive at the MIC was determined. […] The fractional inhibitory concentration (FIC) index was used to determine synergy between peptides and antibiotics. Two-fold serial dilutions of antibiotic were tested in the presence of a constant amount of peptide, equal to one quarter of peptide MIC. The FIC index was determined as follows: FIC=0.25+MICantibiotic in combination/MICantibiotic alone. An FIC index of 0.5 or less is considered as synergy.
# P. aeruginosa H774 = format: cell-based, Pseudomonas aeruginosa; settings: P. aeruginosa H744; nalidixic acid + peptide at ¼ MIC; 0.5 or less = synergy
# Procedure: as §2
# HeLaS3 = test: Anti-cancer assay, MTT, LD50; format: cell-based; settings: 24 hours with peptide, cervical carcinoma
# Excerpt: as §1
# PC3 = test: Anti-cancer assay, MTT, LD50; format: cell-based; settings: 24 hours with peptide, prostate adenocarcinoma
# Excerpt: as §1
# H1299 = test: Anti-cancer assay, MTT, LD50; format: cell-based; settings: 24 hours with peptide, lung large cell carcinoma
# Excerpt: as §1
# WI38 = settings: MTT, 24 hours with peptide; normal fibroblast line
# P. aeruginosa = format: cell-based, Pseudomonas aeruginosa; settings: P. aeruginosa H744; MIC of nalidixic acid with peptide at ¼ MIC
# Procedure: as §2
# [7] = test system: human red blood cells (RBC); test: in vitro; format: cell-based; settings: hemolytic assay, concentration at 50% hemolysis, 1 hour at 37° C.
# S. typhimurium 14028S = format: cell-based, Salmonella typhimurium; settings: mean of three; 16 to 20 hours at 35° C.; in µg/mL
# P. aeruginosa H374 [8] = format: cell-based, Pseudomonas aeruginosa; settings: mean of three; 16 to 20 hours at 35° C.
# E. coli UB1005 = format: cell-based, Escherichia coli; settings: mean of three; 16 to 20 hours at 35° C.; in µg/mL
# [9] = LD50 WI38, WI38 normal lung fibroblast line, MTT
# [10] = chloramphenicol + peptide at ¼ MIC
# [11] = nalidixic acid + peptide at ¼ MIC, FIC=0.25+MIC comb/MIC alone
Substance,LD50 BMKC (BMKC),LD50 SW480 (SW480),LD50 MCF7 (MCF7),paerug9027 (MIC) [1],staph6538 (MIC) [2],CC50 at 24 h (in vitro [3]; [9]),HC50 at 1 h (in vitro [4]),yeast (MIC or MFC) [5],FIC Index (P. aeruginosa H374 [6]; [10]),FIC Index (P. aeruginosa H374 [6]; [11]),FIC Index (P. aeruginosa H774),HeLaS3 LD50 (HeLaS3),PC3 LD50 (PC3),H1299 LD50 (H1299),WI38 LD50 (WI38),MIC Cm-comb. (P. aeruginosa H374 [6]),MIC Nal-comb. (P. aeruginosa H374 [6]),MIC Nal-comb. (P. aeruginosa),also measured
FALALKALKKLKKALKKAL-NH2 [P27],44 µg/mL,26 µg/mL,14 µg/mL,10 µg/mL,10 µg/mL,37 µg/mL,125 µg/mL,25 µg/mL,0.75,0.25,1.25,–,–,–,–,–,–,–,"CC50 at 24 h (in vitro [3]; WI38 LD50, MTT, normal fibroblast line): 520 µg/mL"
"GIGKFLHAAKKFAKAFVAEIMNS-NH2 [P300, reference compound]",130 µg/mL,60 µg/mL,22 µg/mL,–,–,52 µg/mL,250 µg/mL,–,–,–,–,125 µg/mL,45 µg/mL,60 µg/mL,52 µg/mL,16 µg/mL,312 µg/mL,156 µg/mL,–
"FAKKLAKKLAKLAL-NH2 [P45, FAKKLAKKLAKLAL-NH2]",160 µg/mL,180 µg/mL,260 µg/mL,100 µg/mL,5 µg/mL,200 µg/mL,700 µg/mL,100 µg/mL,1.25,0.75,1.25,160 µg/mL,170 µg/mL,330 µg/mL,200 µg/mL,16 µg/mL,2500 µg/mL,624 µg/mL,–
KLALKLALKALKAAKLA-NH2 [P150],190 µg/mL,235 µg/mL,160 µg/mL,10 µg/mL,100 µg/mL,125 µg/mL,650 µg/mL,> (> indicates greater than 200 μg/mL),0.75,0.5,0.75,320 µg/mL,74 µg/mL,185 µg/mL,125 µg/mL,8 µg/mL,1250 µg/mL,312 µg/mL,–
FAKLLAKALKKFL-NH2 [P118],135 µg/mL,115 µg/mL,70 µg/mL,100 µg/mL,10 µg/mL,170 µg/mL,700 µg/mL,100 µg/mL,1.25,0.75,1.25,87 µg/mL,330 µg/mL,74 µg/mL,170 µg/mL,16 µg/mL,2500 µg/mL,624 µg/mL,–
KTKLFKKFAKKLAKKLKKLAKKL-OH [P80],76 µg/mL,35 µg/mL,29 µg/mL,100 µg/mL,10 µg/mL,28 µg/mL,900 µg/mL,100 µg/mL,0.5,0.75,1.25,97 µg/mL,28 µg/mL,64 µg/mL,28 µg/mL,4 µg/mL,2500 µg/mL,624 µg/mL,–
FAKLLAKALKKL-NH2 [P103],75 µg/mL,90 µg/mL,46 µg/mL,25 µg/mL,10 µg/mL,26 µg/mL,650 µg/mL,100 µg/mL,0.75,0.375,1.25,70 µg/mL,330 µg/mL,150 µg/mL,26 µg/mL,8 µg/mL,625 µg/mL,624 µg/mL,–
"FAKKLAKKLKKLAKKLAKLAKKL-NH2 [P307, reference compound]",83 µg/mL,73 µg/mL,38 µg/mL,–,–,75 µg/mL,–,–,0.375,0.375,0.5,100 µg/mL,66 µg/mL,160 µg/mL,75 µg/mL,2 µg/mL,625 µg/mL,156 µg/mL,LD50 [7]: > (> indicates greater than 1000)
FAKLLAKALKLKL-NH2 [P101],160 µg/mL,170 µg/mL,250 µg/mL,25 µg/mL,10 µg/mL,300 µg/mL,550 µg/mL,100 µg/mL,1.25,1.25,1.25,170 µg/mL,730 µg/mL,340 µg/mL,300 µg/mL,16 µg/mL,5000 µg/mL,624 µg/mL,–
FAKLLAKLAKLKL-NH2 [P66],200 µg/mL,145 µg/mL,90 µg/mL,50 µg/mL,5 µg/mL,240 µg/mL,600 µg/mL,100 µg/mL,1.25,1.25,1.25,140 µg/mL,170 µg/mL,130 µg/mL,240 µg/mL,16 µg/mL,5000 µg/mL,624 µg/mL,–
FAKKLAKKLKKLAKKLAK-OH [P71],445 µg/mL,250 µg/mL,190 µg/mL,15 µg/mL,15 µg/mL,355 µg/mL,–,200 µg/mL,0.75,0.75,1.25,570 µg/mL,270 µg/mL,320 µg/mL,355 µg/mL,8 µg/mL,2500 µg/mL,624 µg/mL,S. typhimurium 14028S MIC (S. typhimurium 14028S): 8; P. aeruginosa H374 MIC (P. aeruginosa H374 [8]): 4 µg/mL; E. coli UB1005 MIC (E. coli UB1005): 2

# From patent publication US20050209157A1, “Short bioactive peptides and methods for their use” (priority 2001, published 2005)
